Where “and” joins values, the source holds several entries; their conditions need not be identical. Equal entries are not always repeated.
What was measured:
[1] = Particle size of tadalafil by Malvern laser diffraction (Mastersizer S); assay type: physicochemical
Description: Measurement and characterization of particle size distributions is known in the art. It is possible to compare samples of particulate tadalafil on the basis of individual points on a cumulative particle size distribution curve. The measurements are represented as d(0.X)=Y (where X and Y are Arabic numerals), each “d” describing an individual point on a cumulative PSD curve. The number “X” represents the percentage (number, volume, or weight) of particles in the population having a nominal size up to and including “Y”. Thus, d(0.9)=250μ is characteristic of a PSD in which 90% (number, volume, or weight) of the particles in a population have a nominal size of about 250μ or less (at least some particles having a nominal dimension of 250μ) and so forth. When PSD is determined by the well-know laser-diffraction method described herein, the d(0.X) measurement depicts a volume average. The particle size of tadalafil described herein was measured by Malvern Laser Diffraction using a Mastersizer S instrument. The measuring instrument was equipped with a small cell dispersion unit MS1 with a digital dispersion unit controller. The measurement was performed by using range lens 300RF (working range 0.05-900 mcm), beam length: 2.40 mm, presentation 3$$D (Fraunhofer), number of sweeps 4000, and speed rate 2300±10 rpm. The dilution medium was 0.1% w/v Span 80 in a saturated solution of tadalafil in cyclohexane. The measurement began after 10 seconds of recirculation, after the powder was added directly into the measurement cell filled with the dilution medium. According to the accepted rules of Good Manufacturing Procedures, a sample of tadalafil was measured after a successful blank measurement (% obscuration NMT 0.1%) was performed.

[2] = prior-art tadalafil of U.S. Pat. No. 6,821,975; cited from earlier work

particle size, d(0.9) ([1]; Example 1, final dry material after industrial-scale crystallization from acetone/water with heating/cooling cycles): 60-500 microns | particle size, d(0.9) ([1]; Example 2, final dry material after crystallization from acetone/water with heating/cooling cycles): > 60 microns | particle size, d(0.9) ([1]; Example 3, after milling with micronizer, 50 mm, 4.0 bar feed air and 3.0 bar milling air): about 228.7 microns | particle size, d(0.9) ([1]; Example 4, after milling with micronizer, 50 mm, 2.0 bar feed air and 1.0 bar milling air): about 105.8 microns | particle size, d(0.9) ([1]; Example 5, after milling with Pin-Mill, 9.6 Kg/hr feed rate and 12,000 rpm milling speed): about 52.4 microns | particle size, d(0.9) ([1]; Example 6, after milling with Pin-Mill, 9.6 Kg/hr feed rate and 4500 rpm milling speed): about 202.7 microns
Compound: CN1CC(=O)N2[C@H](c3ccc4c(c3)OCO4)c3[nH]c4ccccc4c3C[C@@H]2C1=O [tadalafil, (6R-trans)-6-(1,3-benzodioxol-5-yl)-2,3,6,7,12,12a-hexahydro-2-methyl-pyrazino[1′,2′:1,6]pyrido[3,4-b]indole-1,4-dione]
particle size, d(0.9) ([1]; starting sample before milling (Examples 3-6)): 584 microns and 538.6 microns and 553.5 microns | particle size of 90% of the particles [2]: less than 40 microns
